The values that follow come from ChEMBL document CHEMBL3868596, “A new target for Parkinson's disease: Small molecule SERCA activator CDN1163 ameliorates dyskinesia in 6-OHDA-lesioned rats” (Bioorg Med Chem, 2017).

Active and inactive are the calls of the source. No cut-off for these calls is given here.

In data set [1] the test system is Rattus norvegicus. As to the kind of experiment: Antiakinetic activity in 6-OHDA induced unilaterally lesioned Wistar rat Parkinson's disease model assessed as restoration of 6-OHDA-induced decrease in number of adjusting steps in contralateral forelimb administered ip qd for 5 days prior to 6-OHDA-challenge measured on day 11 post 1 hr of last dosage. It is filed as functional, organism-based.

Data set [2] concerns Rattus norvegicus. The data set is described as follows: Antiakinetic activity in 6-OHDA induced unilaterally lesioned Wistar rat Parkinson's disease model assessed as increase in double contacts at 10 mg/kg, ip qd administered 5 days prior to 6-OHDA-challenge measured on day 11 post 1.5 hr of last dosage by cylinder test. It is filed as functional, organism-based.
Data set [3] deals with Rattus norvegicus. As to the kind of experiment: Antiakinetic activity in 6-OHDA induced unilaterally lesioned Wistar rat Parkinson's disease model assessed as reduction in 6-OHDA-induced increase in initiation time to move towards plane surface administered ip qd for 5 days prior to 6-OHDA-challenge measured 1 hr post compound treatment on day 11 relative to non-lesioned control. It is filed as functional, organism-based.

A short description of data set [4]: Tmax in mouse at 2 mg/kg, po or 1 mg/kg, iv. It is filed as ADME, organism-based. As to conditions: in vivo.
Data set [5] in a line: Cmax in mouse at 2 mg/kg, po or 1 mg/kg, iv. As to conditions: in vivo. The data set is classed as ADME, organism-based.
The nature of data set [6]: AUC in mouse at 2 mg/kg, po or 1 mg/kg, iv. The data set is classed as ADME, organism-based. The following applies: in vivo.
The nature of data set [7]: Metabolic stability in human liver microsomes measured after 1 hr. The following applies: read-out: Stability. It is filed as ADME.
Data set [8] is described as follows: Metabolic stability in mouse plasma measured after 1 hr. The data set is classed as ADME, cell-free. The following applies: read-out: Stability.
The nature of data set [9]: Permeability of the compound by PAMPA. It is filed as ADME.
Data set [10] can be described thus: Ratio of drug level in mouse brain to plasma at 10 mg/kg, ip measured after 1 hr. It is filed as ADME, organism-based. The following applies: read-out: BPR.
For data set [11], the system named is HeLa. As to the kind of experiment: Activation of SERCA in human HeLa cells expressing YFP/CFP fused cameleon assessed as reduction in thapsigargin-induced decrease in endoplasmic reticulum calcium level by inverted wide-field fluorescence microscopy. It is filed as cell-based.
Data set [12] in a line: Cytoprotection against thapsigargin-induced ER-stress in rat CSM14.1 cells assessed as cell viability at 15 ug/ml preincubated for 2 hrs followed by thapsigargin addition measured after 20 hrs by ATPlite assay relative to thapsigargin treated control. The data set is classed as functional. The following applies: read-out: Activity.
The subject of data set [13] is Rattus norvegicus. The data set is described as follows: Antiakinetic activity in 6-OHDA induced unilaterally lesioned Wistar rat Parkinson's disease model assessed as reduction in 6-OHDA-induced increase in initiation time to move towards plane surface at 10 mg/kg, ip qd administered 5 days prior to 6-OHDA-challenge measured 1 hr post compound treatment on day 11 relative to non-lesioned control. The data set is classed as functional, organism-based.

Data set [14] concerns Rattus norvegicus. The data set is described as follows: Antiakinetic activity in 6-OHDA induced unilaterally lesioned Wistar rat Parkinson's disease model assessed as restoration of 6-OHDA-induced decrease in number of adjusting steps in contralateral forelimb at 10 mg/kg, ip qd administered 5 days prior to 6-OHDA-challenge measured on day 11 post 1 hr of last dosage. The data set is classed as functional, organism-based.

Data set [15] relates to Rattus norvegicus. As to the kind of experiment: Antiakinetic activity in 6-OHDA induced unilaterally lesioned Wistar rat Parkinson's disease model assessed as assessed as increase in double contacts compound administered ip, qd for 5 days prior to 6-OHDA-challenge measured on day 11 post 1.5 hr of last dosage by cylinder test. The data set is classed as functional.
For data set [16], the species on record is Homo sapiens. As to the kind of experiment: Activation of SERCA (unknown origin).
The species entered for data set [17] is Rattus norvegicus. As to the kind of experiment: Cytoprotection against thapsigargin-induced ER-stress in rat CSM14.1 cells assessed as increase in cell viability preincubated for 2 hrs followed by thapsigargin addition measured after 20 hrs by ATPlite assay relative to thapsigargin treated control. The data set is classed as functional, cell-based.

Regarding `N[C@@H](Cc1ccc(O)c(O)c1)C(=O)O`, the result in data set [1], in data set [2] and in [3] was Active.
With `Cc1ccc2cccc(NC(=O)c3ccc(OC(C)C)cc3)c2n1`, in data set [4], the time to peak (Tmax) stood at 40.2 min. In data set [5], this compound returned a Cmax of 0.26 µM. In data set [6], this compound registered an AUC of 410 nM·h. For the same compound, the remaining at 1 h in data set [7] turned out to be 58%; in data set [8] it was 94%. Further, the permeability result in data set [9] is “Permeable”. Moreover, in [10], the Kp at 1 h was 2.83 to 3. For the same compound, the result in [11], in [13], in data set [14], in data set [15] and in data set [16] was Active. Also, the viability at 15 µg/mL in [12] came to 100%. Further, the Activity entry in data set [17] is “Dose-dependent effect”.
